In PubChem BioAssay (NCI):
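Cultured in 96-well plates, cells were exposed to test compound for 48 hours across five concentrations. The concentration for 50% growth inhibition is given as GI50. At the TGI there is no net growth.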

How the values were obtained:
Assay in all cases: NCI anticancer screen, dose series, 48 h
EKVX NSCLC = test system: EKVX NSCLC
K-562 leukemia = test system: K-562 leukemia
KM12 colon = test system: KM12 colon
MALME-3M melanoma = test system: MALME-3M melanoma
OVCAR-4 ovarian = test system: OVCAR-4 ovarian
OVCAR-8 ovarian = test system: OVCAR-8 ovarian
SK-MEL-5 melanoma = test system: SK-MEL-5 melanoma
SNB-19 CNS = test system: SNB-19 CNS
SNB-75 CNS = test system: SNB-75 CNS
TK-10 renal = test system: TK-10 renal
UO-31 renal = test system: UO-31 renal
NCI-H460 lung = test system: NCI-H460 lung
MDA-MB-435 = test system: MDA-MB-435

Row | SMILES | GI50 (EKVX NSCLC) | TGI (EKVX NSCLC) | TGI (K-562 leukemia) | GI50 (KM12 colon) | TGI (KM12 colon) | GI50 (MALME-3M melanoma) | TGI (MALME-3M melanoma) | TGI (OVCAR-4 ovarian) | TGI (OVCAR-8 ovarian) | TGI (SK-MEL-5 melanoma) | TGI (SNB-19 CNS) | TGI (SNB-75 CNS) | TGI (TK-10 renal) | TGI (UO-31 renal) | TGI (NCI-H460 lung) | TGI (MDA-MB-435) | GI50 (SK-MEL-5 melanoma) | GI50 (SNB-19 CNS) | GI50 (UO-31 renal)
1 | O=C(N/N=C/c1cc(Cl)cc(Cl)c1[O-])c1ccccc1O.O=C(N/N=C/c1cc(Cl)cc(Cl)c1[O-])c1ccccc1O.[Mn+2] | 861 nM | 11.2 µM | 17.2 µM | 448 nM | 15.9 µM | 1340 nM | 7.79 µM | 1.58 µM | 2.3 µM | 2.63 µM | 16.1 µM | 22.9 µM | 16.2 µM | 11.1 µM |  |  |  |  | 
2 | COc1ccc2[nH]c(=O)cc(C)c2c1[N+](=O)[O-] |  | > 100 µM | > 100 µM |  | > 100 µM |  | > 100 µM | > 100 µM | > 100 µM | > 100 µM | > 100 µM | 55.7 µM | > 100 µM | > 100 µM | > 100 µM |  |  |  | 
3 | Cc1ccnn1CCc1ccc(Cl)cc1Cl |  | 20.7 µM | > 100 µM |  | > 100 µM |  | > 100 µM | > 100 µM | > 100 µM | 37.7 µM | > 100 µM | > 100 µM | 48.1 µM | 46.3 µM | > 100 µM | > 100 µM |  |  | 
4 | Nc1nc(N)c2ncn(Cc3ccccc3CO)c2n1 |  | > 100 µM | > 100 µM |  | > 100 µM |  | > 100 µM | > 100 µM | > 100 µM | > 100 µM | > 100 µM | > 100 µM | > 100 µM | > 100 µM | > 100 µM | > 100 µM |  |  | 
5 | CSc1nc2c(ncn2C2OC(CO)C(O)C(O)C2O)c(=O)n1C (centres undefined) |  | > 100 µM | > 100 µM |  | > 100 µM |  | > 100 µM | > 100 µM | > 100 µM | > 100 µM | > 100 µM | > 100 µM |  | > 100 µM | > 100 µM |  |  |  | 
6 | COc1cccc(/C=N/[N+](C)(C)C)c1O |  | > 10 µM | > 10 µM |  | > 10 µM |  | > 10 µM | > 10 µM | > 10 µM | > 10 µM | > 10 µM | > 10 µM | > 10 µM | > 10 µM | > 10 µM | > 10 µM |  |  | 
7 | O=C1Nc2ccccc2C1(O)Cc1ccccn1 (centres undefined) |  | > 100 µM | > 100 µM |  | > 100 µM |  | > 100 µM | > 100 µM | > 100 µM | > 100 µM | > 100 µM | > 100 µM | > 100 µM | > 100 µM | > 100 µM | > 100 µM |  |  | 
8 | COc1cc(C2c3cc4c(cc3[C@@H](Nc3cnc5ccccc5c3)C3COC(=O)[C@H]23)OCO4)cc(OC)c1O (some centres undefined) |  | 9.09 µM | 7.33 µM |  | 2.67 µM |  | 2.43 µM | 4.43 µM | 5 µM | 1.78 µM | 9.53 µM |  |  | 3.3 µM | 0.397 µM |  |  |  | 
9 | O=c1c2cc([N+](=O)[O-])ccc2[nH]n1Cc1ccccc1Cl |  | > 100 µM | > 100 µM |  | > 100 µM |  | > 100 µM | > 100 µM | > 100 µM | > 100 µM | > 100 µM | > 100 µM | 99.9 µM | > 100 µM | > 100 µM | > 100 µM |  |  | 
10 | C=C1C(=O)OC2/C=C(CO)/C=C\C3OC3(C)CC(OC(=O)/C(C)=C/COC(C)=O)C12 (centres undefined) |  | 12.8 µM | > 20.7 µM |  | 14.2 µM |  | 3.38 µM | 16.4 µM | 7 µM | 15.9 µM | 25.1 µM | 20.7 µM | 14 µM | 17.9 µM | 15.3 µM | 4.32 µM |  |  | 
11 | C=CCn1c(C)nc2cc(Nc3nc(N4CCCC4)nc4nc[nH]c34)ccc21 |  |  |  |  |  |  |  |  |  | > 100 µM | > 100 µM |  |  | > 100 µM |  |  | > 100 µM | > 100 µM | > 100 µM
12 | COc1cc2c(/C=C3/C(=O)Nc4cc(C)c(O)cc43)c(Cl)[nH]c2cc1C |  |  | 3.9 µM |  | 10.2 µM |  | 11.6 µM | 24.1 µM | 15.7 µM | 12.5 µM | 14.8 µM | 7.6 µM | 7.22 µM | 17.7 µM | 8.89 µM | 1.22 µM |  |  | 
13 | O=C1C=CC2(C=C1)O[C@H](CCc1ccccc1)[C@@H](CCc1ccccc1)O2 |  | 83.3 µM | > 100 µM |  | > 100 µM |  | > 100 µM | > 100 µM | > 100 µM | > 100 µM | > 100 µM | > 100 µM | > 100 µM | > 100 µM | > 100 µM | 76.1 µM |  |  | 
14 | COc1cnc2oc3ccc(O)cc3c2c1-c1ccccc1 |  | > 100 µM | > 100 µM |  | > 100 µM |  | > 100 µM | > 100 µM | > 100 µM | > 100 µM |  | > 100 µM | > 100 µM | > 100 µM | > 100 µM | > 100 µM |  |  | 
15 | O=C(O)C(C1NCCS1)N1C(=O)c2ccccc2C1=O (centres undefined) |  | > 100 µM | > 100 µM |  | > 100 µM |  | > 100 µM | > 100 µM | > 100 µM | > 100 µM | > 100 µM | > 100 µM | > 100 µM | > 100 µM | > 100 µM | > 100 µM |  |  | 
16 | CC1=CC2=C(C=O)C(=O)[C@](C)(O)[C@@H](O)C2=CO1 |  | > 100 µM | > 90.9 µM |  | > 100 µM |  | > 70.2 µM | > 100 µM | > 100 µM | 68.1 µM | 5.5 µM | > 100 µM |  | 43.8 µM | > 100 µM |  |  |  | 
17 | C=C1C(=O)OC2/C=C(\CO)C3OC3C3OC3(C)CC(OC(=O)/C(=C/C)COC(C)=O)C12 (centres undefined) |  | 9.58 µM | > 100 µM |  | 19 µM |  | 3.09 µM | 24.1 µM | 6.22 µM | 20.1 µM | 28.6 µM | 23 µM | 11.1 µM | 23.7 µM | 28.4 µM | 7.88 µM |  |  | 
18 | COc1ccc(C(=O)c2[nH]c(Nc3cc(C)ccn3)c(C(=S)Nc3ccccc3)c2N)cc1 |  | > 100 µM | > 100 µM |  | 39.2 µM |  | 30.8 µM | 36.5 µM | 52.4 µM |  | 56 µM | 50.9 µM | 61.5 µM | 57.4 µM | 31.5 µM | 59.6 µM |  |  | 
19 | Cc1c2cnccc2c(C)c2c1c1ccccc1n2CCCCCCCl |  | > 50 µM | > 50 µM |  | > 50 µM |  | > 50 µM | > 29.3 µM | > 50 µM | > 50 µM | > 50 µM | > 31.6 µM |  | > 50 µM | > 50 µM |  |  |  | 
20 | O=C1Sc2sc(=S)sc2SC1c1ccccc1 (centres undefined) |  | > 100 µM | > 70.7 µM |  | > 100 µM |  | > 83.5 µM | > 31.6 µM | > 100 µM | > 100 µM | > 100 µM | > 81.4 µM |  | > 86.7 µM | > 100 µM |  |  |  | 
